For one experiment, the system named is Bacillus cereus. The experiment is described as follows: Minimal inhibitory concentration against Bacillus cereus. The experiment is classed as functional.
For experiment [1], the system named is Salmonella enterica subsp. enterica serovar Abony. The experiment is described as follows: Minimal inhibitory concentration against Salmonella abony NCTC 6017. Type of experiment: functional.
Experiment [2] has as its system Staphylococcus epidermidis. The experiment is described as follows: Minimal inhibitory concentration against Staphylococcus epidermidis ATCC 12228. Type of experiment: functional.
Experiment [3] concerns Enterococcus faecalis. Description: Minimal inhibitory concentration against Enterococcus faecalis (VRE) ATCC 346-VRE. Type of experiment: functional.
The subject of experiment [4] is Enterococcus faecalis. Description: Minimal inhibitory concentration against Enterococcus faecalis ATCC 29212. The experiment is classed as functional.
The subject of the next experiment is Klebsiella pneumoniae. The experiment is described as follows: Minimal inhibitory concentration against Klebsiella pneumoniae ATCC 15380. Type of experiment: functional.
The subject of experiment [5] is Staphylococcus aureus. Description: Minimal inhibitory concentration against Staphylococcus aureus ATCC 25923. The experiment is classed as functional.
In experiment [6] the test system is Staphylococcus aureus. The experiment is described as follows: Minimal inhibitory concentration against methicillin resistant Staphylococcus aureus ST450; value ranges from 4-16 ug/mL. Type of experiment: functional.
The next experiment has as its system Enterococcus faecium. The experiment is described as follows: Minimal inhibitory concentration against Enterococcus faecium 6A-VRE. Type of experiment: functional.
The next experiment relates to Escherichia coli. Description: Minimal inhibitory concentration against Escherichia coli ATCC 25922. Type of experiment: functional.
The next experiment deals with Enterococcus durans. The experiment is described as follows: Minimal inhibitory concentration against Enterococcus durans ATCC 581. Type of experiment: functional.
The subject of another experiment is Salmonella typhi. The experiment is described as follows: Minimal inhibitory concentration against Salmonella typhi (MDR) ICH 098. The settings on record: Salmonella enterica. The experiment is classed as functional, Salmonella enterica subsp. enterica serovar Typhi.
The subject of another experiment is Serratia marcescens. Description: Minimal inhibitory concentration against Serratia marcescens ATCC 12999. The experiment is classed as functional.
A further experiment has as its system Pseudomonas aeruginosa. Description: Minimal inhibitory concentration against Pseudomonas aeruginosa ATCC 27853. The experiment is classed as functional.
The test system of experiment [7] is Staphylococcus epidermidis. Description: Minimal inhibitory concentration against methicillin resistant Staphylococcus epidermidis ATCC 23760. Type of experiment: functional.

Each structure is given as a SMILES string. ≈ marks a conversion by molar mass, not a printed value.

With `CC(=O)Nc1ccc(Oc2ccc(N3C[C@H](C/N=C(/S)NN)OC3=O)cc2F)cc1`, the MIC against Bacillus cereus was more than 16 µg/mL; in experiment [1] it was more than 16 µg/mL; in experiment [2], 4 µg/mL (≈ 9.23 µM); against Enterococcus faecalis [3], 8 µg/mL (≈ 18.5 µM); against Enterococcus faecalis [4], 4 µg/mL (≈ 9.23 µM); in the experiment with Klebsiella pneumoniae it was more than 16 µg/mL. In addition, the MIC is 4 µg/mL (≈ 9.23 µM) in the experiment on Staphylococcus aureus [5]; 16 µg/mL (≈ 36.9 µM) in the experiment with Staphylococcus aureus [6]; 4 µg/mL (≈ 9.23 µM) against Enterococcus faecium; more than 16 µg/mL in the experiment on Escherichia coli; 4 µg/mL (≈ 9.23 µM) in the experiment on Enterococcus durans; more than 16 µg/mL with Salmonella typhi. For the same molecule, the values for the MIC (in the experiment with Serratia marcescens; against Pseudomonas aeruginosa; in [7]) were more than 16 µg/mL, more than 16 µg/mL and 8 µg/mL (≈ 18.5 µM), respectively.

A word on the MIC: it is the lowest concentration that inhibits growth of the organism. High values mean a less susceptible organism, low ones a more susceptible organism.

These data come from ChEMBL document CHEMBL1137831, “Synthesis and antibacterial activity of some aryloxy/thioaryloxy oxazolidinone derivatives” (2004).
